Seven molecules from US20240351999A1, “PYRROLYLACYLPIPERIDYLAMINE COMPOUND AND USE THEREOF” (INSTITUTE OF MATERIA MEDICA ,CHINESE ACADEMY OF MEDICAL …, priority 2021, published 2024) can be followed below.

The structures appear in SMILES notation. Values after ≈ are worked out from the molar mass of the structure shown. Where two headings read alike, the source gives them in different places.

Format in all cases: cell-based
Assay [1] concerns Enterococcus faecalis ATCC 51575. Kind of assay: In vitro antibacterial activity (MIC), microbroth dilution. To be noted: ATCC51575, 37° C., 18 h.
Assay [2] relates to Staphylococcus aureus MRSA 15-1. Described as above. To be noted: 37° C., 18 h.
For assay [3], the system named is Staphylococcus aureus ATCC 29213. The assay is described as above. To be noted: ATCC29213, 37° C., 18 h.
For assay [4], the system named is Staphylococcus epidermidis MRSE 15-1. The description is as above. To be noted: 37° C., 18 h.
Assay [5] relates to Escherichia coli ATCC 25922. The assay is described as above. To be noted: read-out: MIC Escherichia coli ATCC 25922.
Assay [6] relates to Staphylococcus aureus ATCC 43300 (MRSA). The description is as above. To be noted: 37° C., 18 h, read-out: MIC Staphylococcus aureus ATCC 43300 (MRSA).
Assay [7] deals with Staphylococcus aureus ATCC 25923. The assay is described as above. To be noted: ATCC25923, 37° C., 18 h.
The subject of assay [8] is Acinetobacter baumannii ATCC 19606. Described as above. To be noted: read-out: MIC Acinetobacter baumannii ATCC 19606.
Assay [9] deals with Mycobacterium tuberculosis. Kind of assay: Activity against Mycobacterium tuberculosis (MIC). To be noted: read-out: Inhibitory activity (MIC) against Mycobacterium tuberculosis.
The subject of assay [10] is Staphylococcus epidermidis ATCC 12228. Put plainly: In vitro antibacterial activity (MIC), microbroth dilution. To be noted: ATCC12228, 37° C., 18 h. Background: In broth dilution the organism is exposed to a series of concentrations in liquid medium.
Assay [11] deals with Clostridium difficile ATCC 9689. The description is as above.
Assay [12] relates to Pseudomonas aeruginosa ATCC 27853. The assay is described as above. To be noted: read-out: MIC Pseudomonas aeruginosa ATCC 27853.
Assay [13] relates to Enterococcus faecium EFM 19-1. Described as above. To be noted: EFM191, 37° C., 18 h.
Assay [14] has as its system Escherichia coli ECO+ 15-1. The description is as above. To be noted: 18 h, read-out: MIC Escherichia coli ECO+ 15-1.
The test system of assay [15] is Klebsiella pneumoniae KPN-15-1. The assay is described as above. To be noted: read-out: MIC Klebsiella pneumoniae KPN-15-1.
For assay [16], the system named is Escherichia coli ATCC 35218. Described as above. To be noted: read-out: MIC Escherichia coli ATCC 35218.

In general, MIC refers to the lowest concentration that inhibits growth of the organism. In the case of `CO[C@H]1CN(c2nnc(C(C)(C)O)s2)CC[C@H]1NC(=O)c1[nH]c(C)c(Cl)c1Cl` [Compound 2, 3,4-Dichloro-N-((3S,4R)-1-(5-(2-hydroxypropan-2-yl)-1,3,4-thiadiazol-2-yl)-3-methoxypiperidin-4-yl)-5-methyl-1H-pyrrole-2-carboxamide], the MIC in assay [1] was not above 0.03 mg/L; in assay [2], not above 0.03 mg/L; in assay [3], 0.008 mg/L (≈ 0.0178 µM); in assay [4] it was not above 0.03 mg/L; in [5] (ATCC25922, 37° C., 18 h), 2 mg/L (≈ 4.46 µM); in assay [6], not above 0.03 mg/L. Besides, the MIC in assay [7] was not above 0.03 mg/L; in assay [8] (ATCC19606, 37° C., 18 h), 16 mg/L (≈ 35.7 µM); in assay [9], 0.595 mg/L (≈ 1.33 µM); in assay [10], not above 0.03 mg/L; in assay [11] (Clostridioides difficile, ATCC9689; read-out: MIC Clostridium difficile ATCC 9689), 0.25 mg/L (≈ 0.558 µM); in [12] (ATCC27853, 37° C., 18 h) it was 8 mg/L (≈ 17.8 µM). The MIC in assay [13] was not above 0.03 mg/L; in [14] (37° C.), 16 mg/L (≈ 35.7 µM); in assay [15] (KPN151, 37° C., 18 h) it was 16 mg/L (≈ 35.7 µM); in [16] (ATCC35218, 37° C., 18 h), 1 mg/L (≈ 2.23 µM). In addition, in assay [11] (vs DS2969 and vancomycin), the “Activity against Clostridium difficile compared with controls” value is “stronger than those of DS2969 and the positive control drug vancomycin”.
As for `CO[C@H]1CN(c2cnc(C(C)(C)O)cn2)CC[C@H]1NC(=O)c1[nH]c(C)c(Cl)c1Cl` [Compound 4, 3,4-Dichloro-N-((3S,4R)-1-(5-(2-hydroxypropan-2-yl)pyrazin-2-yl)-3-methoxypiperidin-4-yl)-5-methyl-1H-pyrrole-2-carboxamide], the MIC in assay [3] was determined as 0.25 mg/L (≈ 0.565 µM); in [10] it was 0.5 mg/L (≈ 1.13 µM).
In the case of `CO[C@H]1CN(c2ncc(C(C)(C)O)s2)CC[C@H]1NC(=O)c1[nH]c(C)c(Cl)c1Cl` [Compound 6, 3,4-Dichloro-N-((3S,4R)-1-(5-(2-hydroxypropan-2-yl)thiazol-2-yl)-3-methoxypiperidin-4-yl)-5-methyl-1H-pyrrole-2-carboxamide], the minimum inhibitory concentration (MIC) in [3] and in [10] was 0.25 mg/L (≈ 0.559 µM) each time.
In the case of `CO[C@H]1CN(c2ccc(C3(O)CCCC3)nn2)CC[C@H]1NC(=O)c1[nH]c(C)c(Cl)c1Cl` [Compound 7, 3,4-Dichloro-N-((3S,4R)-1-(6-(1-hydroxycyclopentyl)pyridazin-3-yl)-3-methoxypiperidin-4-yl)-5-methyl-1H-pyrrole-2-carboxamide], the MIC is not above 0.03 mg/L in [3]; 8 mg/L (≈ 17.1 µM) in [5] (ATCC25922, 37° C., 18 h); 0.125 mg/L (≈ 0.267 µM) in assay [10].
The corresponding values for `CO[C@H]1CN(c2ccc(C3(O)CCCCC3)nn2)CC[C@H]1NC(=O)c1[nH]c(C)c(Cl)c1Cl` [Compound 8, 3,4-Dichloro-N-((3S,4R)-1-(6-(1-hydroxycyclohexyl)pyridazin-3-yl)-3-methoxypiperidin-4-yl)-5-methyl-1H-pyrrole-2-carboxamide] are not above 0.03 mg/L, 16 mg/L (≈ 33.2 µM) and not above 0.03 mg/L.
In the case of `C[C@H]1COc2c(N3CCN(C)CC3)c(F)cc3c(=O)c(C(=O)O)cn1c23` [Levofloxacin, reference compound], the MIC in assay [1] is 0.5 mg/L (≈ 1.38 µM); in [2], 16 mg/L (≈ 44.3 µM); in assay [3] it was 0.25 mg/L (≈ 0.692 µM); in [4] it was 4 mg/L (≈ 11.1 µM); in assay [5] (ATCC25922, 37° C., 18 h), not above 0.06 mg/L; in assay [6], 0.25 mg/L (≈ 0.692 µM). For the same molecule, the MIC turned out to be 0.25 mg/L (≈ 0.692 µM) in [7]; 0.25 mg/L (≈ 0.692 µM) in [8] (ATCC19606, 37° C., 18 h); 0.125 mg/L (≈ 0.346 µM) in [10]; 2 mg/L (≈ 5.53 µM) in [12] (ATCC27853, 37° C., 18 h); 0.5 mg/L (≈ 1.38 µM) in [13]; 8 mg/L (≈ 22.1 µM) in [14] (37° C.). For the same molecule, the MIC in [15] (KPN151, 37° C., 18 h) was 0.5 mg/L (≈ 1.38 µM); in [16] (ATCC35218, 37° C., 18 h), not above 0.06 mg/L.
Turning to `CN[C@H](CC(C)C)C(=O)N[C@H]1C(=O)N[C@@H](CC(N)=O)C(=O)N[C@H]2C(=O)N[C@H]3C(=O)N[C@H](C(=O)N[C@H](C(=O)O)c4cc(O)cc(O)c4-c4cc3ccc4O)[C@H](O)c3ccc(c(Cl)c3)Oc3cc2cc(c3O[C@@H]2O[C@H](CO)[C@@H](O)[C@H](O)[C@H]2O[C@H]2C[C@](C)(N)[C@H](O)[C@H](C)O2)Oc2ccc(cc2Cl)[C@H]1O` [Vancomycin], the MIC in assay [5] (ATCC25922, 18 h) was more than 64 mg/L; in assay [8] (ATCC19606, 18 h) it was more than 64 mg/L; in [11] (Clostridioides difficile, ATCC9689, read-out: MIC Clostridium difficile ATCC 9689), 2 mg/L (≈ 1.38 µM); in [12] (ATCC27853, 18 h), more than 64 mg/L; in [14], more than 64 mg/L; in assay [15] (KPN151, 18 h), more than 64 mg/L. Also, the MIC in [16] (ATCC35218, 18 h) is more than 64 mg/L.
